This is an account of results in US9919055B2, “Sugar-linker-drug conjugates” (Arizona Board of Regents on Behalf of Arizona State …, priority 2013, dated 2018).

Assay [1] deals with MTX Resistant DU-145 Cells. The assay can be described thus: In vitro cell growth inhibition test (MTT assay, cell viability). The class given is cell-based, human. The note with it: 72 h incubation, DU-145-MTX cells. The method, then: (§1) A methotrexate resistant cell line. DU 145(MTX) was developed from parental DU 145 cells by exposure to increasing concentrations (starting at 0.1 μM) of methotrexate over a period of 6 months. DU 145(MTX) was at least 250-fold less sensitive to methotrexate than parental cells.
The human prostate cancer cell lines DU-145 (ATCC) was cultured in MEM media with glutamine and supplemented with 10% fetal bovine serum, penicillin (100 U/mL) and streptomycin ([…]) in air enriched with 5% CO2 at 37° C.
Cell viability was determined using the MTT assay. Briefly, cells were seeded in 96-well plates at a density of 3000 cells per well in 0.1 mL MEM media supplemented with 10% fetal bovine serum, and test compounds were concomitantly added in a concentration range of 0.001-1000 μM. Dilutions were made using the culture medium from 1 mM stock solutions of the drugs in anhydrous DMSO. Controls were treated with an equivalent amount of solvent, diluted as above, to assess the absence of toxicity due to the solvent. After 72 h of incubation, 15 μL of 5 mg mL^−1 MTT dye (3-[4,5-dimethylthiazol-2-yl]-2,5-diphenyltetrazolium bromide, sigma) was added for 4 h at 37° C. Media was removed and the monolayer suspended in 0.15 mL of DMSO, after which the absorbance at 570 nm was measured using a microplate reader. The control value corresponding to untreated cells was defined as 100% and the viability of treated samples was expressed as a percentage of the control.
(Formazan colour is commonly taken as a measure of viable cells.)

In assay [2] the test system is DU 145(MTX) cells. As to the kind of experiment: Sensitivity of methotrexate resistant cell line DU 145(MTX) versus parental DU 145 cells. It is filed as cell-based, human. Here is the method: as §1

Turning to `CN(Cc1cnc2nc(N)nc(N)c2n1)c1ccc(C(=O)N[C@@H](CCC(=O)O)C(=O)O)cc1` [Methotrexate (MTX), Methotrexate, reference compound], the results for the “DU-145-MTX (% cell survival)” value in assay [1] (100 nM test compound), in assay [1] (1 μM test compound) and in assay [1] (10 μM test compound) were 82%, 84% and 83%, respectively. In addition, the “fold less sensitive to methotrexate than parental cells” value in assay [2] is “at least 250 fold”.
